This data set can be described thus: Solubility of pesticides in solvents (pesticide powder added in 2% stepwise increments). The data set is classed as physicochemical. The following applies: for Dissolving ability of Comparative Solvent B compared with Inventive Solvent 1: comparison Solvesso 150 vs ethyl 3-ethoxypropionate; for Dissolving ability of Comparative Solvent B compared with Inventive Solvent 1 / Dissolving ability of Comparative Solvent A compared with Inventive Solvent 1: in words; for Dissolving ability of Comparative Solvent A compared with Inventive Solvent 1: comparison xylene vs ethyl 3-ethoxypropionate; for Solubility in Comparative Solvent B: solvent Solvesso 150; for Solubility in Comparative Solvent B / Solubility in Inventive Solvent 1 / Solubility in Comparative Solvent A: concentration just prior to the one where the powder is not dissolved, no more than 2% lower than actual solubility; for Solubility in Inventive Solvent 1: solvent ethyl 3-ethoxypropionate; for Solubility in Comparative Solvent A: solvent xylene.

Procedure: The solubility of various pesticides in these solvents are evaluated.
Each pesticide powder is added by solvent in 2% stepwise increments to the final pesticide concentration. Each pesticide reaches a concentration where the pesticide powder is not dissolved by the solvent.

`Cc1c(COC(=O)[C@@H]2[C@H](/C=C(\Cl)C(F)(F)F)C2(C)C)cccc1-c1ccccc1` (racemic) [Bifenthrin]: the “Dissolving ability of Comparative Solvent B compared with Inventive Solvent 1” value is “comparable dissolving ability”, the “Dissolving ability of Comparative Solvent A compared with Inventive Solvent 1” value is “stronger dissolving ability”, the “Solubility in Comparative Solvent B” value came out at 44 weight % and the “Solubility in Inventive Solvent 1” value came to 43 weight %. The “Solubility in Comparative Solvent A” value amounted to 45 weight %.

For `CC(C)N1C(=O)N(c2ccccc2)CS/C1=N\C(C)(C)C` [Buprofezin], the “Dissolving ability of Comparative Solvent B compared with Inventive Solvent 1” value is on record as “comparable dissolving ability”, the “Solubility in Comparative Solvent B” value amounted to 16 weight %, the “Solubility in Inventive Solvent 1” value is 18 weight % and the “Solubility in Comparative Solvent A” value is recorded as 10 weight %.

`CCOP(=S)(OCC)Oc1nc(Cl)c(Cl)cc1Cl` [Chlopyrifos]: the “Dissolving ability of Comparative Solvent A compared with Inventive Solvent 1” value was “stronger dissolving ability”, the “Solubility in Comparative Solvent B” value came out at 54 weight %, the “Solubility in Inventive Solvent 1” value is listed as 63 weight % and the “Solubility in Comparative Solvent A” value was determined as 70 weight %.

For the compound `CCCCC(C#N)(Cn1cncn1)c1ccc(Cl)cc1` (stereo not shown) [Myclobutanil], the “Solubility in Comparative Solvent B” value was 23 weight %, the “Solubility in Inventive Solvent 1” value is 39 weight % and the “Solubility in Comparative Solvent A” value is reported as 27 weight %.

Take `COC(=O)N(OC)c1ccccc1COc1ccn(-c2ccc(Cl)cc2)n1` [Pyraclostrobin]: the “Solubility in Comparative Solvent B” value came out at 31 weight %, the “Solubility in Inventive Solvent 1” value is recorded as 47 weight % and the “Solubility in Comparative Solvent A” value stood at 42 weight %.

In the case of `CC(C)(C)C(O)(CCc1ccc(Cl)cc1)Cn1cncn1` (stereo not shown) [Tebuconazole], the “Solubility in Comparative Solvent B” value is recorded as 2.0 weight %, the “Solubility in Inventive Solvent 1” value came out at 16 weight % and the “Solubility in Comparative Solvent A” value was determined as 4.0 weight %.

As for `CC(C)(C)C(=O)C(Oc1ccc(Cl)cc1)n1cncn1` (stereo not shown) [Triazolone], the “Solubility in Comparative Solvent B” value is listed as 12 weight %, the “Solubility in Inventive Solvent 1” value was found to be 32 weight % and the “Solubility in Comparative Solvent A” value is on record as 23 weight %.

Source of the values: patent US20200253196A1, “SOLVENTS FOR AGRICULTURAL APPLICATIONS AND PESTICIDE FORMULATIONS” (priority 2017, published 2020).
